Assay results reported in PMC3970809, “Spectral characteristics of the mutant form GGBP/H152C of D-glucose/D-galactose-binding protein labeled with fluorescent dye BADAN: influence of external factors” (PeerJ, 2014).

Molecular target: T1, D-glucose/D-galactose-binding protein (GGBP), mutant form GGBP/H152C labeled with BADAN (Escherichia coli, UniProt P0AEE5, H175C)
T1 construct: gene mglB; GGBP/H152C-BADAN (BADAN linked to Cys 152)
Test: BADAN fluorescence titration (Kd by nonlinear regression); stopped-flow binding kinetics

T1 sequence (P0AEE5 24-332 H175C limits assumed): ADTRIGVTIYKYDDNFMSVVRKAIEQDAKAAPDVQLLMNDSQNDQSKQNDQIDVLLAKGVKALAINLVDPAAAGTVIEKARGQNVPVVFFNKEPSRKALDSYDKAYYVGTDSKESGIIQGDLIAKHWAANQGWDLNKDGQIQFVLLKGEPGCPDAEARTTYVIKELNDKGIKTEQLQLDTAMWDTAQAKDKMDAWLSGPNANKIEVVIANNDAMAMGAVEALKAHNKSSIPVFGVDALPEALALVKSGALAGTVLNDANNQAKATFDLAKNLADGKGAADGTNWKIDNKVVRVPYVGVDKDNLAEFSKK

Compound: OC[C@H]1OC(O)[C@H](O)[C@@H](O)[C@@H]1O (stereo partly shown) [Glc]
- Kd: 8.5 µM
